Experiments:
wheat leaf blight fungus = experiment: Test Example 3: growth of wheat leaf blight fungus in YBG medium, microtiter plate, absorbance at 550 nm; type: cell-based, Mycosphaerella graminicola; details: single use, 18° C., six days
Experimental: The present compound 1-3 or the present compound 2-1 was dissolved into dimethyl sulfoxide such that each concentration of the present compound 1-3 or the present compound 2-1 was adjusted to one hundred fifty times as much as the concentration indicated in the below-mentioned Table 5. The resultant agent solution was dispensed into a microtiter plate (with 96 wells) in 1 μl portion thereof per well. One hundred forty nine (149) μl of YBG medium (which was prepared by dissolving 10 g of yeast extract, 10 g of Bacto Peptone, and 20 mL of glycerol into 1 L of water, followed by sterilizing the medium) was dispensed into the wells to which the agent solution(s) was/were dispensed. The plate was cultivated at 18° C. for six days, thereby allowing wheat leaf blight fungus to undergo proliferation, and the absorbance at 550 nm of each well of the micro titer plate was then measured to examine a degree of growth of the wheat leaf blight fungus (hereinafter referred to as “treated group”).
Whereas, wheat leaf blight fungus was proliferated similarly to the case of the treated group except that dimethyl sulfoxide was used instead of the agent solution, and the degree of the growth was examined (hereinafter referred to as “untreated group”). The efficacy was calculated from the respective obtained degree of growth by the below-mentioned “Equation 1”.
Efficacy (%)=100×(X−Y)/X Equation 1 […]

[1] = tested on: wheat rust fungus (Puccinia recondita); experiment: Test Example 4: foliar spray of flowable formulations on wheat, inoculation with wheat rust fungus, lesion area; type: in vivo, Puccinia recondita on wheat (cultivar. Shirogane); details: single use
Experimental: Five (5) parts of the present compound 1-3, 35 parts of a mixture of white carbon and ammonium polyoxyethylene alkyl ether sulfate (the weight ratio of 1:1) and 55 parts of water were mixed, and the mixture was then finely-ground by a wet grinding method to obtain a flowable formulation comprising the present compound 1-3. Separately, the flowable formulation comprising the present compound 2-1 was prepared according to the above-mentioned similar method except that the present compound 2-1 was used instead of the present compound 1-3 to form a flowable formulation comprising the present compound 2-1.
Each of the above-mentioned respective flowable formulations, and the flowable formulation comprising the present compound 1-3 and the present compound 2-1 that was prepared according to the above-mentioned Formulation Example 3 was diluted with water such that each concentration of the respective compounds in the dilution solutions was adjusted to that indicated in Table 6, to prepare the dilution solutions, respectively.
A plastic pot was filled with soil, and thereto wheat (cultivar. Shirogane) was seeded, and the plants were grown in a greenhouse for ten days. […]
From each of the lesion area of the treated group and the untreated group, respectively, the efficacy of the treated group was calculated by the below-mentioned Equation 2. […]

Cc1cccc(-n2nnn(C)c2=O)c1COc1ccn(-c2ccc(Cl)cc2)n1 [Present compound 1-3, 1-(2-{[1-(4-chlorophenyl)-1H-pyrazol-3-yl]oxymethyl}-3-methylphenyl)-4-methyl-1,4-dihydrotetrazol-5-one]
Efficacy (%) (wheat leaf blight fungus; concentration in medium 0.0001 ppm): 20%
Efficacy (%) (wheat leaf blight fungus; concentration in medium 0.01 ppm): 37%
Efficacy (%) ([1]; concentration 0.002 ppm): 35%
Efficacy (%) ([1]; concentration 0.01 ppm): 70%
